In patent US4584379A, “Isoquinoline thromboxane synthetase inhibitors” (Merrell Dow Pharmaceuticals Inc., priority 1985, dated 1986):

Key:
platelet rich plasma [1] = assay: arachidonic acid induced platelet aggregation in platelet rich plasma (Born aggregometry); assay type: cell-based, human
Protocol: (§1) The specific inhibitory activity of the present compounds can be determined by the following procedures. For platelet aggregation, blood was collected from normal volunteers into sodium citrate (3.8% w/v) 9:1. The indicated volunteers had not ingested aspirin or other non-steroidal anti-inflammatory drugs for at least 7 days. Platelet rich plasma was prepared from the blood by centrifugation at 200×g for 15 minutes. This plasma was centrifuged at 10,000×g for 2 minutes to obtain platelet poor plasma blank. The platelet rich plasma was incubated at 37° C. for 60 seconds prior to addition of vehicle or compound. The platelet rich plasma was then incubated for an additional 60 seconds prior to the addition of arachidonic acid or ADP. Aliquots (50 μl) were removed at 30 and 60 seconds after the addition of arachidonic acid for determination of iTXB2. Platelet aggregation was monitored in a Model 300 Chronolog aggregometer using the method of Born.

platelet rich plasma [2] = assay: ADP induced platelet aggregation in platelet rich plasma (Born aggregometry); assay type: cell-based, human
Protocol: as §1

thromboxane synthetase [3] = assay: iTXB2 produced during arachidonic acid induced platelet aggregation; assay type: cell-based, human; settings: 1 mM
Protocol: as §1

washed platelets = assay: 14C-arachidonic acid metabolism by washed platelets (TLC); assay type: cell-based, human
Protocol: Washed platelets (400 μl) prepared as above were placed in a cuvette. Either vehicle (50 μl), isoquinoline test compound, or indomethacin was then added. After incubation for 55 seconds at 37° C., 50 μl of calcium chloride (5 mM) was added and, at 60 seconds, 50 μl of ^14 C-arachidonic acid (0.1 μCi, 0.4 mM) was added. Four minutes later, 80 μl of 10% formic acid was added to stop the reaction. The contents were then poured into 6.5 ml of ice-cold ethyl acetate and the cuvette was further rinsed twice with 1 ml of ethyl acetate. The samples were subsequently extracted as previously described. The dried extract was reconstituted in chloroform:methanol (2:1) and spotted onto TLC plates. PGE2 PGF2α, TXB2 (20 μg of each) were spotted as the reference. The plates were developed in a chloroform:methanol, acetic acid, water (90:8:1:0.8) solution. […] Each plate was visualized with iodine vapor, the Rf s noted and then 1 cm zones scraped and counted in a Beckman Liquid Scintillation spectrometer.

thromboxane synthetase [4] = assay: iTXB2 production by whole blood after intravenous dosing of rats; assay type: in vivo, Sprague-Dawley rats; settings: 30 minutes prior to obtaining blood, female rats
Protocol: Varying doses of the test compound were administered intravenously to female Sprague-Dawley rats weighing between 250-300 g 30 minutes prior to obtaining blood. […] A dose of 10 mg/kg produced approximately a 50% inhibition of iTXB2 production.

microphages = assay: endogenous arachidonic acid metabolism by microphages; assay type: cell-based
Protocol: To establish if the test compound was a selective thromboxane synthetase inhibitor or a fatty acid cyclooxygenase inhibitor, the effects of the isoquinoline on endogenous arachidonic acid metabolism by microphages was assessed. […] The effect on i-6-keto-PGFα levels was variable. At a concentration of 500 μm it inhibited i-6-keto-PGFα formation and at 250 μm it increased its formation. At all other concentrations it had no affect.

Structure (SMILES)	rate of arachidonic acid induced platelet aggregation (platelet rich plasma [1]; 0.5 mM)	rate of arachidonic acid induced platelet aggregation (platelet rich plasma [1]; 1 mM)	ADP induced platelet aggregation as compared to control (platelet rich plasma [2]; 1 mM)	inhibition at 1000 µM (platelet rich plasma [2]; Homo sapiens, Platelet, 1 min, 1000 μM, at 60 seconds, read-out: reduction of ADP aggregation)	amounts of iTXB2 produced during arachidonic acid induced platelet aggregation (thromboxane synthetase [3]; 30 seconds)	amounts of iTXB2 produced during arachidonic acid induced platelet aggregation (thromboxane synthetase [3]; 60 seconds)	percent of arachidonic acid converted to PGE2 (washed platelets; washed platelets)	percentage of arachidonic acid converted to TXB2 (washed platelets; washed platelets)	total amount of arachidonic acid metabolized via the cyclo-oxygenase pathway (washed platelets; washed platelets, versus vehicle controls)	inhibition of iTXB2 production (thromboxane synthetase [4]; 10 mg/kg intravenously)	iTXB2 production by whole blood (thromboxane synthetase [4]; varying doses intravenously)	basal synthesis of iTXB2 by microphages (microphages; 10 μM to 1000 μM)	i-6-keto-PGFα formation (microphages; 250 μm)	i-6-keto-PGFα formation (microphages; 500 μm)	i-6-keto-PGFα formation (microphages; all other concentrations)	iPGE levels (microphages; at most concentrations)	selectivity for thromboxane synthesis (microphages; conclusion from iTXB2, iPGE and i-6-keto-PGFα levels)	inhibition at 50 µM (washed platelets; Homo sapiens, Platelet, 4 min, read-out: reduction of metabolism of arachidonic acid compared to controls)
O=C(O)c1ccc(NCc2cncc3ccccc23)cc1 [isoquinoline, 4-[(4-isoquinolinylmethyl)amino]benzoic acid]	significantly inhibited	significantly inhibited	marked effect	30%	significantly reduced	significantly reduced	did not affect	reduced	not different from the vehicle controls	~50%	dose dependent reduction	significantly reduced	increased	inhibited	no affect	significantly increased	appears to selectively inhibit thromboxane synthesis	–
COc1ccc2c(c1)c(CC(=O)O)c(C)n2C(=O)c1ccc(Cl)cc1 [indomethacin, reference compound]	–	–	–	–	–	–	–	–	–	–	–	–	–	–	–	–	–	78%
